Measurements published in PubChem BioAssay (NCI).
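Tested at 5 concentrations; 48 h exposure; 96-well plates; endpoints linearly interpolated, else capped at highest concentration. Abbreviation: GI50, concentration required for 50% inhibition of growth. TGI: total growth inhibition.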

Experiments:
Experiment in all cases: NCI-60 cell line screen, 48 h
M14 melanoma = system: M14 melanoma
A549 NSCLC = system: A549 NSCLC
OVCAR-3 ovarian = system: OVCAR-3 ovarian
ACHN renal = system: ACHN renal
A498 renal = system: A498 renal
MALME-3M melanoma = system: MALME-3M melanoma
PC-3 prostate = system: PC-3 prostate
HCT-15 colon = system: HCT-15 colon
SF-295 CNS = system: SF-295 CNS
BT-549 breast = system: BT-549 breast
DU-145 prostate = system: DU-145 prostate
HL-60(TB) leukemia = system: HL-60(TB) leukemia
HCC-2998 colon = system: HCC-2998 colon
CAKI-1 renal = system: CAKI-1 renal
SN12C renal = system: SN12C renal
SK-MEL-5 melanoma = system: SK-MEL-5 melanoma
MDA-MB-468 breast = system: MDA-MB-468 breast
U251 CNS = system: U251 CNS
KM12 colon = system: KM12 colon
SK-MEL-2 melanoma = system: SK-MEL-2 melanoma
SNB-75 CNS = system: SNB-75 CNS
RPMI-8226 leukemia = system: RPMI-8226 leukemia
K-562 leukemia = system: K-562 leukemia
LOX IMVI melanoma = system: LOX IMVI melanoma
HCT-116 colon = system: HCT-116 colon
EKVX NSCLC = system: EKVX NSCLC
T-47D breast = system: T-47D breast
OVCAR-4 ovarian = system: OVCAR-4 ovarian
OVCAR-5 ovarian = system: OVCAR-5 ovarian
MCF7 breast = system: MCF7 breast
SK-MEL-28 melanoma = system: SK-MEL-28 melanoma
NCI-H522 lung = system: NCI-H522 lung
HOP-92 NSCLC = system: HOP-92 NSCLC
NCI-H460 lung = system: NCI-H460 lung
SF-539 CNS = system: SF-539 CNS
SNB-19 CNS = system: SNB-19 CNS
SW-620 colon = system: SW-620 colon
MDA-MB-435 = system: MDA-MB-435
MDA-MB-231 breast = system: MDA-MB-231 breast
SF-268 CNS = system: SF-268 CNS
NCI-H226 lung = system: NCI-H226 lung
NCI-H23 lung = system: NCI-H23 lung
HS 578T breast = system: HS 578T breast
HOP-62 NSCLC = system: HOP-62 NSCLC
IGROV1 ovarian = system: IGROV1 ovarian
RXF 393 renal = system: RXF 393 renal
UACC-62 melanoma = system: UACC-62 melanoma
786-0 renal = system: 786-0 renal
SR leukemia = system: SR leukemia
UO-31 renal = system: UO-31 renal
MOLT-4 leukemia = system: MOLT-4 leukemia
TK-10 renal = system: TK-10 renal
CCRF-CEM leukemia = system: CCRF-CEM leukemia
OVCAR-8 ovarian = system: OVCAR-8 ovarian
UACC-257 melanoma = system: UACC-257 melanoma
HT29 colon = system: HT29 colon
SK-OV-3 ovarian = system: SK-OV-3 ovarian
COLO 205 colon = system: COLO 205 colon

Structure (SMILES): CN(C)c1ccnc(NCCCSC(c2ccccc2)(c2ccccc2)c2ccccc2)c1
- GI50 (M14 melanoma): 3.81 µM
- TGI (M14 melanoma): 13.3 µM
- GI50 (A549 NSCLC): 7.35 µM
- TGI (A549 NSCLC): 21.6 µM
- GI50 (OVCAR-3 ovarian): 7.26 µM
- TGI (OVCAR-3 ovarian): 20.2 µM
- GI50 (ACHN renal): 8.67 µM
- TGI (ACHN renal): 24.8 µM
- GI50 (A498 renal): 14.9 µM
- TGI (A498 renal): 29 µM
- GI50 (MALME-3M melanoma): 1.55 µM
- TGI (MALME-3M melanoma): 3.19 µM
- GI50 (PC-3 prostate): 4.41 µM
- TGI (PC-3 prostate): 16.3 µM
- GI50 (HCT-15 colon): 5.19 µM
- TGI (HCT-15 colon): 19.6 µM
- GI50 (SF-295 CNS): 11.4 µM
- TGI (SF-295 CNS): 26.2 µM
- GI50 (BT-549 breast): 11.5 µM
- TGI (BT-549 breast): 25 µM
- GI50 (DU-145 prostate): 11 µM
- TGI (DU-145 prostate): 23 µM
- GI50 (HL-60(TB) leukemia): 3.06 µM
- TGI (HL-60(TB) leukemia): 10.5 µM
- GI50 (HCC-2998 colon): 2.55 µM
- TGI (HCC-2998 colon): 7.13 µM
- GI50 (CAKI-1 renal): 7.48 µM
- TGI (CAKI-1 renal): 21 µM
- GI50 (SN12C renal): 11.1 µM
- TGI (SN12C renal): 25.8 µM
- GI50 (SK-MEL-5 melanoma): 3.93 µM
- TGI (SK-MEL-5 melanoma): 14.2 µM
- GI50 (MDA-MB-468 breast): 2.01 µM
- TGI (MDA-MB-468 breast): 5.63 µM
- GI50 (U251 CNS): 7.78 µM
- TGI (U251 CNS): 21.7 µM
- GI50 (KM12 colon): 5.57 µM
- TGI (KM12 colon): 17.8 µM
- GI50 (SK-MEL-2 melanoma): 16.6 µM
- TGI (SK-MEL-2 melanoma): 30.7 µM
- GI50 (SNB-75 CNS): 11.9 µM
- TGI (SNB-75 CNS): 24.3 µM
- GI50 (RPMI-8226 leukemia): 3.43 µM
- TGI (RPMI-8226 leukemia): 12.3 µM
- GI50 (K-562 leukemia): 2.88 µM
- TGI (K-562 leukemia): 10.4 µM
- GI50 (LOX IMVI melanoma): 2.96 µM
- TGI (LOX IMVI melanoma): 10.6 µM
- GI50 (HCT-116 colon): 3.97 µM
- TGI (HCT-116 colon): 17 µM
- GI50 (EKVX NSCLC): 14.2 µM
- TGI (EKVX NSCLC): 29.6 µM
- GI50 (T-47D breast): 11.4 µM
- TGI (T-47D breast): 29 µM
- GI50 (OVCAR-4 ovarian): 11.8 µM
- TGI (OVCAR-4 ovarian): 29.8 µM
- GI50 (OVCAR-5 ovarian): 11.9 µM
- TGI (OVCAR-5 ovarian): 26 µM
- GI50 (MCF7 breast): 3.96 µM
- TGI (MCF7 breast): 16.6 µM
- GI50 (SK-MEL-28 melanoma): 1.75 µM
- TGI (SK-MEL-28 melanoma): 3.74 µM
- GI50 (NCI-H522 lung): 12 µM
- TGI (NCI-H522 lung): 26.6 µM
- GI50 (HOP-92 NSCLC): 3.3 µM
- TGI (HOP-92 NSCLC): 15.8 µM
- GI50 (NCI-H460 lung): 4.85 µM
- TGI (NCI-H460 lung): 17.1 µM
- GI50 (SF-539 CNS): 6.82 µM
- TGI (SF-539 CNS): 21.9 µM
- GI50 (SNB-19 CNS): 15.9 µM
- TGI (SNB-19 CNS): 31.5 µM
- GI50 (SW-620 colon): 4.42 µM
- TGI (SW-620 colon): 16.1 µM
- GI50 (MDA-MB-435): 8.6 µM
- TGI (MDA-MB-435): 20.9 µM
- GI50 (MDA-MB-231 breast): 5.71 µM
- TGI (MDA-MB-231 breast): 20.2 µM
- GI50 (SF-268 CNS): 14.5 µM
- TGI (SF-268 CNS): 30.5 µM
- GI50 (NCI-H226 lung): 10.9 µM
- TGI (NCI-H226 lung): 28.1 µM
- GI50 (NCI-H23 lung): 12.9 µM
- TGI (NCI-H23 lung): 26.3 µM
- GI50 (HS 578T breast): 11.3 µM
- TGI (HS 578T breast): 35.3 µM
- GI50 (HOP-62 NSCLC): 14.5 µM
- TGI (HOP-62 NSCLC): 29.2 µM
- GI50 (IGROV1 ovarian): 11.4 µM
- TGI (IGROV1 ovarian): 27.9 µM
- GI50 (RXF 393 renal): 2.58 µM
- TGI (RXF 393 renal): 9.7 µM
- GI50 (UACC-62 melanoma): 7.5 µM
- TGI (UACC-62 melanoma): 21.6 µM
- GI50 (786-0 renal): 9.86 µM
- TGI (786-0 renal): 25.8 µM
- GI50 (SR leukemia): 2.76 µM
- TGI (SR leukemia): 7.84 µM
- GI50 (UO-31 renal): 5.4 µM
- TGI (UO-31 renal): 21.1 µM
- GI50 (MOLT-4 leukemia): 3.62 µM
- TGI (MOLT-4 leukemia): 15 µM
- GI50 (TK-10 renal): 12.4 µM
- TGI (TK-10 renal): 25.4 µM
- GI50 (CCRF-CEM leukemia): 3.94 µM
- TGI (CCRF-CEM leukemia): 17 µM
- GI50 (OVCAR-8 ovarian): 10.3 µM
- TGI (OVCAR-8 ovarian): 28 µM
- GI50 (UACC-257 melanoma): 3.07 µM
- TGI (UACC-257 melanoma): 11.6 µM
- GI50 (HT29 colon): 3 µM
- TGI (HT29 colon): 10.7 µM
- GI50 (SK-OV-3 ovarian): 13.5 µM
- TGI (SK-OV-3 ovarian): 26.8 µM
- GI50 (COLO 205 colon): 1.87 µM
- TGI (COLO 205 colon): 3.44 µM
